From patent publication US20220202822A1, “8-SUBSTITUTED ARYL VINYL XANTHINE DERIVATIVES AND USES THEREOF” (SUNSHINE LAKE PHARMA CO., LTD., priority 2019, published 2022)

What was measured:
[1] = target: T1, human adenosine A2A receptor (Homo sapiens, UniProt P29274); assay: Antagonizing effect on human adenosine A2A receptor (cAMP, TR-FRET, NECA-stimulated HEK-293 cells); format: cell-based; conditions: inhibition of cAMP produced by NECA (3 nM), HEK-293 cells expressing human recombinant A2A receptor
T1 construct: expressed in transfected cells; host or cells: HEK-293
T1 sequence (P29274 whole entry): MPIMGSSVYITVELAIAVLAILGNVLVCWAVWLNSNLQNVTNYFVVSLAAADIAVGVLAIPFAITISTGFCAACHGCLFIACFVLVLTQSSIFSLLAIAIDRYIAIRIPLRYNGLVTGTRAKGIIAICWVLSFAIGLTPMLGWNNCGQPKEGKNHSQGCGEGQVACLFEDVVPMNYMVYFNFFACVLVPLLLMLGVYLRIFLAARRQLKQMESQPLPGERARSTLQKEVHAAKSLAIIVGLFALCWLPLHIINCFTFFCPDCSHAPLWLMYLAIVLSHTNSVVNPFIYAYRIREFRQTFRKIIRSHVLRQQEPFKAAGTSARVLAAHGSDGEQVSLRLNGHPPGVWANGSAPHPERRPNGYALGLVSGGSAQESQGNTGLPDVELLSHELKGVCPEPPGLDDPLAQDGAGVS
Procedure: The experimental system uses human recombinant adenosine A2A receptor, which is stably expressed in HEK-293 cell line. HEK-293 cells were inoculated into culture plate at a density of 1.25×10^5 cells /mL. The medium was changed by modified HBSS solution with pH 7.4, different concentrations of test compounds (10 μM, 1 μM, 0.1 μM, 10 nM, 1 nM, 0.1 nM) and solvents (PBS with 0.1% DMSO) were added, and the plate was incubated at 37° C. for 10 min. cAMP (cyclic adenosine monophosphate) concentration in culture medium was detected by TR-FRET method. NECA was used as a positive control in this experiment, (1) test compounds alone were used to stimulate cells to produce a certain amount of cAMP, and then NECA (0.1 μM) alone was used to stimulate cells to produce a certain amount of cAMP. A test compound is considered to have agonistic activity on adenosine A2A receptor if the test compound alone stimulates cells to produce cAMP more than 50% of the amount of cAMP produced by NECA (0.1 μM) alone. (2) All cells were first incubated with test compounds and then stimulated with NECA (3 nM). In addition, NECA (3 nM) alone was used to stimulate cells to produce a certain amount of cAMP. […] IC50 was calculated using MathIQ™ (ID Business Solutions Ltd., UK) through nonlinear, least squares regression equation analysis.

[2] = Pharmacokinetic evaluation in beagles after intravenous or intragastric administration; format: in vivo, beagle
Procedure: The LC/MS/MS system for analysis includes the Agilent 1200 series vacuum degasser, a quaternary pump, an orifice plate sampler, a thermostatted column oven, and an API4000Qtrap triple quadrupole mass spectrometer with an electrospray ionization source (ESI).
Waters xbridge C18, 2.1×50 mm, 3.5 μm column was used for analysis, and 0.5 μL of sample was injected. Analytical conditions: mobile phase consisting of mobile phase A (H2O+2 mM HCOONH4 (ammonium formate) +0.1% FA (formic acid)) and mobile phase B (MeOH (methanol)+2 mM HCOONH4 (ammonium formate)+0.1% FA (formic acid)). Flow rate was 0.7 mL/min.
(§1) The experiment was divided into two groups: one was administered by intravenous injection, and the other was administered by intragastric administration. The compound of the present invention was administered to a test animal in the form of 10% DMA (heating)+60% PEG400+30% saline solution. For the group of intravenous administration, the administration dose was 1 mg/kg, and vein blood samples (0.3 mL) were collected at the time points of 0.083, 0.25, 0.5, 1.0, 2.0, 4.0, 6.0, 8.0 and 24 h after administration. The plasma solutions were collected (EDTA-K2 as anticoagulant) by centrifuging each blood sample at 3,000 rpm or 4,000 rpm for 10 minutes and then kept at −20° C. or −70° C. For the group of intragastric administration, the administration dose was 5 mg/kg, and vein blood samples (0.3 mL) were collected at the time points of 0.25, 0.5, 1.0, 2.0, 5.0, 7.0 and 24 h after administration. The plasma solutions were collected (EDTA-K2 as anticoagulant) by centrifuging each blood sample at 3,000 rpm or 4,000 rpm for 10 minutes and then kept at −20° C. or −70° C.
10 μL of plasma was taken, 120 μL of IS working solution was added to the plasma, and the plasma mixture was vortexed for 2 min. The mixed solution was then centrifuged at 12,000 rpm for 2 min. 80 μL of the supernatant was taken, 140 μL of methanol/H2O (v/v =1/1) was added, and the solution was vortexed for 2 minutes, then 1.0 μL was taken for injection into the LC-MS/MS system. LC-MS/MS method was used to detect the concentration of target compounds, and non-compartment model was used to calculate pharmacokinetic parameters, and the results were shown in table C.

[3] = Pharmacokinetic evaluation in rats after intravenous or intragastric administration; format: in vivo, SD rats; conditions: for AUC(0-inf) / AUC(0-t) / Cmax / MRT inf / Tmax / clearance / half-life: SD, rat, plasma
Procedure: The LC-MS/MS system for analysis includes the Agilent 1200 series vacuum degasser, a quaternary pump, an orifice plate sampler, a thermostatted column oven, and an API4000Qtrap triple quadrupole mass spectrometer with an electrospray ionization source (ESI).
Waters ACQUITY UPLC CSH C18, 2.1×50 mm, 1.7 μm column was used for analysis, and 0.8 μL of sample was injected. Analytical conditions: mobile phase was H2O+2 mM HCOONH4 (ammonium formate)+0.1% FA (formic acid) (mobile phase A) and MeOH (methanol)+2 mM HCOONH4 (ammonium formate)+0.1% FA (formic acid) (mobile phase B). Flow rate was 0.7 mL/min.
as §1, with “test animal (overnight fast for 12 hours) in the” for “test animal in the”, “1.0, 2.0, 5.0, 7.0 and 24” for “1.0, 2.0, 4.0, 6.0, 8.0 and 24”, “after administration. EDTA-K2 as anticoagulant was added into the blood vessel. The plasma” for “after administration. The plasma”, “were collected by centrifuging” for “were collected (EDTA-K2 as anticoagulant) by centrifuging”, “minutes and kept at” for “minutes and then kept at”
20 μL of plasma was taken, 120 μL of IS working solution was added to the plasma, and the plasma mixture was vortexed for 2 min. The mixed solution was then centrifuged at 12,000 rpm for 2 min. 100 μL of the supernatant was taken, 110 μL of MeOH/H2O (v/v=1/1) was added, and the solution was vortexed for 2 minutes, then 5 μL was taken for inj ection into the LC-MS/MS system.

[4] = beagle, dog, plasma, intravenous injection, 1 mg/kg
[5] = beagle, dog, plasma, po, intragastric administration, 5 mg/kg
[6] = intragastric administration, 5 mg/kg
[7] = po, intragastric administration, 5 mg/kg

| IC50 [1] | AUC(0-inf) ([3]; intravenous injection, 1 mg/kg) | AUC(0-t) ([3]; intravenous injection, 1 mg/kg) | Cmax ([3]; intravenous injection, 1 mg/kg) | MRT inf ([3]; intravenous injection, 1 mg/kg) | Tmax ([3]; intravenous injection, 1 mg/kg) | clearance ([3]; intravenous injection, 1 mg/kg) | half-life ([3]; intravenous injection, 1 mg/kg) | AUC(0-inf) [3, 7] | AUC(0-t) [3, 7] | Cmax [3, 7] | MRT inf [3, 7] | Tmax [3, 7] | half-life [3, 7] | F [3, 6] | Vss ([3]; intravenous injection, 1 mg/kg) | SMILES | further results |
| --- | --- | --- | --- | --- | --- | --- | --- | --- | --- | --- | --- | --- | --- | --- | --- | --- | --- |
| 2510 nM | 4360 ng·h/mL | 4340 ng·h/mL | 879 ng/mL | 4.26 h | 4.98 min | 3.82 mL/min/kg | 201 min | 32300 ng·h/mL | 32100 ng·h/mL | 3660 ng/mL | 5.2 h | 100 min | 203 min | 148.2% | 0.977 kg⁻¹ | CCn1c(=O)c2c(nc(/C=C/c3ccc(OC4CCS(=O)(=O)CC4)cc3)n2C)n(CC)c1=O [Example 1, (E)-8-(4-((1,1-dioxidotetrahydro-2H-thiopyran-4-yl)oxy)styryl)-1,3-diethyl-7-methyl-1H-purine-2,6(3H,7H)-dione] | AUC(0-inf) [2, 4]: 56300 ng·h/mL; AUC(0-t) [2, 4]: 25400 ng·h/mL; Cmax [2, 4]: 1870 ng/mL; MRT inf [2, 4]: 41.5 h; Tmax [2, 4]: 1 h; clearance [2, 4]: 0.296 mL/min/kg; half-life [2, 4]: 1830 min; AUC(0-inf) [2, 5]: 114000 ng·h/mL; AUC(0-t) [2, 5]: 40300 ng·h/mL; Cmax [2, 5]: 2530 ng/mL; MRT inf [2, 5]: 54 h; Tmax [2, 5]: 4.67 h; half-life [2, 5]: 2210 min; F [2, 6]: 38.7%; Vss ([2]; intravenous injection, 1 mg/kg): 0.737 kg⁻¹ |
| 3250 nM | 4230 ng·h/mL | 4180 ng·h/mL | 985 ng/mL | 4.35 h | 4.98 min | 3.94 mL/min/kg | 240 min | 24400 ng·h/mL | 23700 ng·h/mL | 3110 ng/mL | 5.94 h | 100 min | 286 min | 110.2% | 1.03 kg⁻¹ | CCn1c(=O)c2c(nc(/C=C/c3ccc(OC4CCS(=O)(=O)CC4)c(F)c3)n2C)n(CC)c1=O [Example 2, (E)-8-(4-((1,1-dioxidotetrahydro-2H-thiopyran-4-yl)oxy)-3-fluorostyryl)-1,3-diethyl-7-methyl-1H-purine-2,6(3H,7H)-dione] | – |
| 2990 nM | – | – | – | – | – | – | – | – | – | – | – | – | – | – | – | CCn1c(=O)c2c(nc(/C=C/c3ccc(OC4CCS(=O)(=O)CC4)nc3)n2C)n(CC)c1=O [Example 4, (E)-8-(2-(6-((1,1-dioxidotetrahydro-2H-thiopyran-4-yl)oxy)pyridin-3-yl)vinyl)-1,3-diethyl-7-methyl-1H-purine-2,6(3H,7H)-dione] | – |
| 1480 nM | – | – | – | – | – | – | – | – | – | – | – | – | – | – | – | CCn1c(=O)c2c(nc(/C=C/c3ccc(OC4CCC(F)(F)CC4)cc3)n2C)n(CC)c1=O [Example 6, (E)-8-(4-((4,4-difluorocyclohexyl)oxy)styryl)-1,3-diethyl-7-methyl-1H-purine-2,6(3H,7H)-dione] | – |
